Results published in US7622450B2, “Flavone C-glycoside derivatives and compositions containing the derivatives” (Suntory Holdings Limited, priority 2002, dated 2009).

How the values were obtained:
DNFB-induced ear edema = test: Inhibitory effect on mouse ear contact dermatitis (DNFB-induced ear edema); format: in vivo, ICR strain mice; conditions: for Dose producing 50% inhibition of ear edema: DNFB-induced ear edema, mice, p.o.; for DNFB-induced edema vs control group: ICR mice, Student's t-test
Method: (§1) ICR strain mice at 7 weeks of age were purchased from CLEA Japan and used for experiments after preconditioning for 1 week. The yellow powder obtained in Example 1 [compound (1)] was suspended in 0.5% sodium carboxymethylcellulose/0.01N hydrochloric acid to prepare sample formulations at three concentrations corresponding to doses of 0.2, 1.0 and 5.0 μg/kg in a dose volume of 10 ml/kg. […] in six mice per group was established in 5 days by subcutaneous injection of 100 μl of a solution of 1% 2,4-dinitrofluorobenzene (DNFB) in ethanol on the back. On day 6, a solution of 1% DNFB in olive oil was applied on the right ear to induce ear contact dermatitis. After 24 hours, both ears were punched out in a diameter of 8 mm and weighed. Compound (1) was continuously orally administered for 7 days from the day before the primary challenge until the day on which edema was induced. A control group was treated with 0.5% sodium carboxymethylcellulose/0.01N hydrochloric acid. The experimental results were expressed as the average percentage of edema on the right in relation to left ears with standard deviation using Student's t-test for evaluating the significance between groups.
as §1, with “(2)]” for “(1)]”, “1.0, 10” for “0.2, 1.0”, “100” for “5.0”, “(2)” for “(1)”
The same procedures as in Experimental examples 1 and 2 were used to compare the inhibitory effects of a corticosteroid and several flavonoids (FIG. 3) on DNFB-induced ear edema formation with those of compound (1) and compound (2). The experimental results were expressed as the dose producing a 50% inhibition of DNFB-induced ear edema.

peritoneal mast cells = test: Inhibitory effect on histamine release from peritoneal mast cells (Compound 48/80); format: cell-based, Wistar strain rats; conditions: Mast cell, rat peritoneal mast cells
Method: Wistar strain rats at 7 weeks of age were purchased from CLEA Japan and used for experiments after preconditioning for 1 week. After Wistar strain rats were decapitated under ether anesthesia, Tyrode solution was intraperitoneally injected. Mast cells were routinely isolated and suspended at […] in Tyrode solution containing 0.1% bovine serum albumin (BSA) to prepare a mast cell suspension. The mast cell suspension was incubated with compound (1) or compound (2) dissolved in 50% methanol at 37° C. for 5 minutes. Then, the suspension was further incubated with Compound 48/80 at 37° C. for 10 minutes and cooled on ice and then centrifuged. Then, the free histamine content in the resulting supernatant was measured on a high-speed liquid chromatograph by the post-column method using ortho-phthalaldehyde (OPA) according to the method of Onda et al. [J. Med. Sci., 27, 93-97(1978)]. The experimental results were expressed as the percentage of histamine release inhibited by the treatment with the samples as compared with the treatment with the solvent alone.

O=c1cc(-c2ccc(O)cc2)oc2cc(O)cc(O)c12 [Apigenin]
Dose producing 50% inhibition of ear edema (DNFB-induced ear edema): 247 mg/kg p.o.

O=c1cc(-c2ccc(O)cc2)oc2cc3c(c(O)c12)[C@@H]1O[C@H](CO)[C@@H](O)[C@H](O)[C@@H]1O3 [Compound (1)]
inhibition at 5 µg/mL (peritoneal mast cells; concentration 5.0 μg/ml): 62.3%
DNFB-induced edema vs control group (DNFB-induced ear edema; 1.0 μg/kg orally for 7 days): significantly inhibited
DNFB-induced edema vs control group (DNFB-induced ear edema; 5.0 μg/kg orally for 7 days): significantly inhibited
Dose producing 50% inhibition of ear edema (DNFB-induced ear edema): 0.05 mg/kg p.o.

O=c1cc(-c2ccc(O)cc2)oc2c3c(cc(O)c12)O[C@H]1[C@@H](O)[C@H](O)[C@@H](CO)O[C@@H]31 [Compound (2)]
inhibition at 50 µg/mL (peritoneal mast cells; concentration 50.0 μg/ml): 51.2%
DNFB-induced edema vs control group (DNFB-induced ear edema; 100 μg/kg orally for 7 days): significantly inhibited
Dose producing 50% inhibition of ear edema (DNFB-induced ear edema): 0.17 mg/kg p.o.

C[C@@H]1C[C@H]2[C@@H]3CCC4=CC(=O)C=C[C@]4(C)[C@@]3(F)[C@@H](O)C[C@]2(C)[C@@]1(O)C(=O)CO [Dexamethasone]
Dose producing 50% inhibition of ear edema (DNFB-induced ear edema): 1.5 mg/kg p.o.

O=c1c(O)c(-c2ccc(O)c(O)c2)oc2cc(O)cc(O)c12 [Quercetin]
Dose producing 50% inhibition of ear edema (DNFB-induced ear edema): 265 mg/kg p.o.

C[C@@H]1O[C@@H](O[C@@H]2[C@@H](O)[C@H](O)[C@@H](CO)O[C@H]2c2c(O)cc(O)c3c(=O)cc(-c4ccc(O)cc4)oc23)[C@H](O)[C@H](O)[C@H]1O [Rhamnosyl vitexin]
Dose producing 50% inhibition of ear edema (DNFB-induced ear edema): 146 mg/kg p.o.

C[C@@H]1O[C@@H](OC[C@H]2O[C@@H](Oc3c(-c4ccc(O)c(O)c4)oc4cc(O)cc(O)c4c3=O)[C@H](O)[C@@H](O)[C@@H]2O)[C@H](O)[C@H](O)[C@H]1O [Rutin]
Dose producing 50% inhibition of ear edema (DNFB-induced ear edema): 123 mg/kg p.o.

O=c1cc(-c2ccc(O)cc2)oc2c([C@@H]3O[C@H](CO)[C@@H](O)[C@H](O)[C@H]3O)c(O)cc(O)c12 [Vitexin]
Dose producing 50% inhibition of ear edema (DNFB-induced ear edema): 103 mg/kg p.o.
